≈ marks a conversion by molar mass, not a printed value.
Tests used:
Format in all cases: functional
[1] = test system: Kluyveromyces marxianus; assay: Antifungal activity against Kluyveromyces fragilis NRRL 2415 after 72 hrs by disk diffusion method
[2] = test system: Micrococcus luteus; assay: Antibacterial activity against Micrococcus luteus La 2971 after 24 hrs by twofold serial dilution method
[3] = test system: Debaryomyces hansenii; assay: Antifungal activity against Debaryomyces hansenii DSM 70238 after 48 hrs by twofold serial dilution method; details: DSM 70238, 48 h
[4] = test system: Micrococcus luteus; assay: Antibacterial activity against Micrococcus luteus La 2971 after 24 hrs by disk diffusion method
[5] = test system: Debaryomyces hansenii; assay: Antifungal activity against Debaryomyces hansenii DSM 70238 after 72 hrs by disk diffusion method
[6] = test system: Mycolicibacterium smegmatis; assay: Antibacterial activity against Mycobacterium smegmatis CCM 2067 after 24 hrs by disk diffusion method
[7] = test system: Mycolicibacterium smegmatis; assay: Antibacterial activity against Mycobacterium smegmatis CCM 2067 after 24 hrs by twofold serial dilution method; details: CCM 2067, 24 h
[8] = test system: Pseudomonas aeruginosa; assay: Antibacterial activity against Pseudomonas aeruginosa ATCC 27853 after 24 hrs by twofold serial dilution method; details: ATCC 27853, 24 h
[9] = test system: Rhodotorula mucilaginosa; assay: Antifungal activity against Rhodotorula rubra DSM 70403 after 48 hrs by twofold serial dilution method; details: DSM 70403, 48 h
[10] = test system: Hanseniaspora guilliermondii; assay: Antifungal activity against Hanseniaspora guilliermondii DSM 3432 after 48 hrs by twofold serial dilution method; details: DSM 3432, 48 h
[11] = test system: Staphylococcus aureus; assay: Antibacterial activity against Staphylococcus aureus ATCC 6538 after 24 hrs by twofold serial dilution method; details: ATCC 6538, 24 h
[12] = test system: Proteus vulgaris; assay: Antibacterial activity against Proteus vulgaris ATCC 8427 after 24 hrs by twofold serial dilution method; details: ATCC 8427, 24 h
[13] = test system: Candida albicans; assay: Antifungal activity against Candida albicans ATCC 10231 after 72 hrs by disk diffusion method
[14] = test system: Staphylococcus aureus; assay: Antibacterial activity against Staphylococcus aureus ATCC 6538 after 24 hrs by disk diffusion method
[15] = test system: Listeria monocytogenes; assay: Antibacterial activity against Listeria monocytogenes ATCC 15313 after 24 hrs by disk diffusion method
[16] = test system: Escherichia coli; assay: Antibacterial activity against Escherichia coli ATCC 11230 after 24 hrs by disk diffusion method
[17] = test system: Listeria monocytogenes; assay: Antibacterial activity against Listeria monocytogenes ATCC 15313 after 24 hrs by twofold serial dilution method; details: ATCC 15313, 24 h
[18] = test system: Proteus vulgaris; assay: Antibacterial activity against Proteus vulgaris ATCC 8427 after 24 hrs by disk diffusion method
[19] = test system: Hanseniaspora guilliermondii; assay: Antifungal activity against Hanseniaspora guilliermondii DSM 3432 after 72 hrs by disk diffusion method
[20] = test system: Pseudomonas aeruginosa; assay: Antibacterial activity against Pseudomonas aeruginosa ATCC 27853 after 24 hrs by disk diffusion method
[21] = test system: Klebsiella pneumoniae; assay: Antibacterial activity against Klebsiella pneumoniae UC57 after 24 hrs by twofold serial dilution method
[22] = test system: Klebsiella pneumoniae; assay: Antibacterial activity against Klebsiella pneumoniae UC57 after 24 hrs by disk diffusion method
[23] = test system: Kluyveromyces marxianus; assay: Antifungal activity against Kluyveromyces fragilis NRRL 2415 after 48 hrs by twofold serial dilution method; details: NRRL 2415, 48 h
[24] = test system: Candida albicans; assay: Antifungal activity against Candida albicans ATCC 10231 after 48 hrs by twofold serial dilution method; details: ATCC 10231, 48 h
[25] = test system: Rhodotorula mucilaginosa; assay: Antifungal activity against Rhodotorula rubra DSM 70403 after 72 hrs by disk diffusion method
[26] = test system: Bacillus cereus; assay: Antibacterial activity against Bacillus cereus ATCC 7064 after 24 hrs by twofold serial dilution method; details: ATCC 7064, 24 h
[27] = test system: Bacillus cereus; assay: Antibacterial activity against Bacillus cereus ATCC 7064 after 24 hrs by disk diffusion method
[28] = test system: Escherichia coli; assay: Antibacterial activity against Escherichia coli ATCC 11230 after 24 hrs by twofold serial dilution method; details: ATCC 11230, 24 h
[29] = test system: Bacillus cereus; assay: Antibacterial activity against Bacillus cereus ATCC 7064 at 1 ug after 24 hrs by disk diffusion method; details: ATCC 7064, 24 h, read-out: IZ
[30] = test system: Mycolicibacterium smegmatis; assay: Antibacterial activity against Mycobacterium smegmatis CCM 2067 at 1 ug after 24 hrs by disk diffusion method; details: CCM 2067, 24 h, read-out: IZ
[31] = test system: Staphylococcus aureus; assay: Antibacterial activity against Staphylococcus aureus ATCC 6538 at 1 ug after 24 hrs by disk diffusion method; details: ATCC 6538, 24 h, read-out: IZ
[32] = test system: Pseudomonas aeruginosa; assay: Antibacterial activity against Pseudomonas aeruginosa ATCC 27853 at 1 ug after 24 hrs by disk diffusion method; details: ATCC 27853, 24 h, read-out: IZ
[33] = test system: Escherichia coli; assay: Antibacterial activity against Escherichia coli ATCC 11230 at 1 ug after 24 hrs by disk diffusion method; details: ATCC 11230, 24 h, read-out: IZ
[34] = test system: Proteus vulgaris; assay: Antibacterial activity against Proteus vulgaris ATCC 8427 at 1 ug after 24 hrs by disk diffusion method; details: ATCC 8427, 24 h, read-out: IZ
[35] = test system: Micrococcus luteus; assay: Antibacterial activity against Micrococcus luteus La 2971 at 1 ug after 24 hrs by disk diffusion method; details: read-out: IZ
[36] = test system: Listeria monocytogenes; assay: Antibacterial activity against Listeria monocytogenes ATCC 15313 at 1 ug after 24 hrs by disk diffusion method; details: ATCC 15313, 24 h, read-out: IZ
[37] = test system: Klebsiella pneumoniae; assay: Antibacterial activity against Klebsiella pneumoniae UC57 at 1 ug after 24 hrs by disk diffusion method; details: read-out: IZ
[38] = test system: Micrococcus luteus; assay: Antibacterial activity against Micrococcus luteus La 2971 at 5 ug after 24 hrs by disk diffusion method; details: read-out: IZ
[39] = test system: Proteus vulgaris; assay: Antibacterial activity against Proteus vulgaris ATCC 8427 at 5 ug after 24 hrs by disk diffusion method; details: ATCC 8427, 24 h, read-out: IZ
[40] = test system: Staphylococcus aureus; assay: Antibacterial activity against Staphylococcus aureus ATCC 6538 at 5 ug after 24 hrs by disk diffusion method; details: ATCC 6538, 24 h, read-out: IZ
[41] = test system: Bacillus cereus; assay: Antibacterial activity against Bacillus cereus ATCC 7064 at 5 ug after 24 hrs by disk diffusion method; details: ATCC 7064, 24 h, read-out: IZ
[42] = test system: Listeria monocytogenes; assay: Antibacterial activity against Listeria monocytogenes ATCC 15313 at 5 ug after 24 hrs by disk diffusion method; details: ATCC 15313, 24 h, read-out: IZ
[43] = test system: Escherichia coli; assay: Antibacterial activity against Escherichia coli ATCC 11230 at 5 ug after 24 hrs by disk diffusion method; details: ATCC 11230, 24 h, read-out: IZ
[44] = test system: Mycolicibacterium smegmatis; assay: Antibacterial activity against Mycobacterium smegmatis CCM 2067 at 5 ug after 24 hrs by disk diffusion method; details: CCM 2067, 24 h, read-out: IZ
[45] = test system: Pseudomonas aeruginosa; assay: Antibacterial activity against Pseudomonas aeruginosa ATCC 27853 at 5 ug after 24 hrs by disk diffusion method; details: ATCC 27853, 24 h, read-out: IZ
[46] = test system: Klebsiella pneumoniae; assay: Antibacterial activity against Klebsiella pneumoniae UC57 at 5 ug after 24 hrs by disk diffusion method; details: read-out: IZ

Compound: O=C1CSCC(=O)Nc2cccc(n2)NC(=O)CSCC(=O)Nc2cccc(n2)N1
- inhibition zone (IZ) [1]: 20 mm
- MIC [2]: 12.5 µg/mL (≈ 28 µM)
- MIC [3]: 3.12 µg/mL (≈ 7 µM)
- inhibition zone (IZ) [4]: 12 mm
- inhibition zone (IZ) [5]: 18 mm
- inhibition zone (IZ) [6]: 10 mm
- MIC [7]: 25 µg/mL (≈ 56 µM)
- MIC [8]: 6.25 µg/mL (≈ 14 µM)
- MIC [9]: 6.25 µg/mL (≈ 14 µM)
- MIC [10]: 3.12 µg/mL (≈ 7 µM)
- MIC [11]: 12.5 µg/mL (≈ 28 µM)
- MIC [12]: 25 µg/mL (≈ 56 µM)
- inhibition zone (IZ) [13]: 17 mm
- inhibition zone (IZ) [14]: 14 mm
- inhibition zone (IZ) [15]: 12 mm
- inhibition zone (IZ) [16]: 10 mm
- MIC [17]: 12.5 µg/mL (≈ 28 µM)
- inhibition zone (IZ) [18]: 11 mm
- inhibition zone (IZ) [19]: 20 mm
- inhibition zone (IZ) [20]: 16 mm
- MIC [21]: 6.25 µg/mL (≈ 14 µM)
- inhibition zone (IZ) [22]: 15 mm
- MIC [23]: 3.12 µg/mL (≈ 7 µM)
- MIC [24]: 6.25 µg/mL (≈ 14 µM)
- inhibition zone (IZ) [25]: 15 mm
- MIC [26]: 12.5 µg/mL (≈ 28 µM)
- inhibition zone (IZ) [27]: 12 mm
- MIC [28]: 25 µg/mL (≈ 56 µM)

Compound: O=C1CCSSCCC(=O)Nc2cccc(n2)NC(=O)CCSSCCC(=O)Nc2cccc(n2)N1
- inhibition zone (IZ) [1]: 22 mm
- MIC [2]: 12.5 µg/mL (≈ 22.1 µM)
- MIC [3]: 1.56 µg/mL (≈ 2.75 µM)
- inhibition zone (IZ) [4]: 15 mm
- inhibition zone (IZ) [5]: 22 mm
- inhibition zone (IZ) [6]: 10 mm
- MIC [7]: 25 µg/mL (≈ 44.1 µM)
- MIC [8]: 6.25 µg/mL (≈ 11 µM)
- MIC [9]: 1.56 µg/mL (≈ 2.75 µM)
- MIC [10]: 1.56 µg/mL (≈ 2.75 µM)
- MIC [11]: 6.25 µg/mL (≈ 11 µM)
- MIC [12]: 25 µg/mL (≈ 44.1 µM)
- inhibition zone (IZ) [13]: 22 mm
- inhibition zone (IZ) [14]: 15 mm
- inhibition zone (IZ) [15]: 15 mm
- inhibition zone (IZ) [16]: 16 mm
- MIC [17]: 12.5 µg/mL (≈ 22.1 µM)
- inhibition zone (IZ) [18]: 11 mm
- inhibition zone (IZ) [19]: 22 mm
- inhibition zone (IZ) [20]: 17 mm
- MIC [21]: 6.25 µg/mL (≈ 11 µM)
- inhibition zone (IZ) [22]: 17 mm
- MIC [23]: 1.56 µg/mL (≈ 2.75 µM)
- MIC [24]: 1.56 µg/mL (≈ 2.75 µM)
- inhibition zone (IZ) [25]: 22 mm
- MIC [26]: 12.5 µg/mL (≈ 22.1 µM)
- inhibition zone (IZ) [27]: 15 mm
- MIC [28]: 6.25 µg/mL (≈ 11 µM)

Compound: CC1(C)S[C@@H]2[C@H](NC(=O)[C@H](N)c3ccccc3)C(=O)N2[C@H]1C(=O)O [AMPICILLIN]
- zone of inhibition at 1 µg/disc [29]: 16 mm
- zone of inhibition at 1 µg/disc [30]: 21 mm
- zone of inhibition at 1 µg/disc [31]: 16 mm
- zone of inhibition at 1 µg/disc [32]: 12 mm
- zone of inhibition at 1 µg/disc [33]: 12 mm
- zone of inhibition at 1 µg/disc [34]: 32 mm
- zone of inhibition at 1 µg/disc [35]: 10 mm
- zone of inhibition at 1 µg/disc [36]: 12 mm
- zone of inhibition at 1 µg/disc [37]: 14 mm

Compound: CO/N=C(\C(=O)N[C@@H]1C(=O)N2C(C(=O)O)=C(COC(C)=O)CS[C@H]12)c1csc(N)n1 [CEFOTAXIME]
- zone of inhibition at 1 µg/disc [29]: 18 mm
- zone of inhibition at 1 µg/disc [30]: 11 mm
- zone of inhibition at 1 µg/disc [31]: 12 mm
- zone of inhibition at 1 µg/disc [32]: 14 mm
- zone of inhibition at 1 µg/disc [33]: 10 mm
- zone of inhibition at 1 µg/disc [34]: 32 mm
- zone of inhibition at 1 µg/disc [35]: 54 mm
- zone of inhibition at 1 µg/disc [36]: 16 mm
- zone of inhibition at 1 µg/disc [37]: 13 mm

Compound: CC1COc2c(N3CCN(C)CC3)c(F)cc3c(=O)c(C(=O)O)cn1c23 (stereo not drawn) [OFLOXACIN]
- zone of inhibition at 5 µg/disc [38]: 44 mm
- zone of inhibition at 5 µg/disc [39]: 28 mm
- zone of inhibition at 5 µg/disc [40]: 24 mm
- zone of inhibition at 5 µg/disc [41]: 28 mm
- zone of inhibition at 5 µg/disc [42]: 30 mm
- zone of inhibition at 5 µg/disc [43]: 30 mm
- zone of inhibition at 5 µg/disc [44]: 32 mm
- zone of inhibition at 5 µg/disc [45]: 30 mm
- zone of inhibition at 5 µg/disc [46]: 28 mm
